Source: US20110263454A1, “Methods of Identifying Functional Characteristics of Promoters, Transcription Modifying Proteins and Transcription Modulating Agents” (Salk Institute for Biological Studies, priority 2008, published 2011)

Key:
hIFNg promoter = experiment: NHR-promoter luciferase screen, hIFNg promoter; assay type: cell-based, human; details: for Luc. act., normalized to lacZ / Normalized Luc. act., normalized to control: IFNg promoter, HR component without or with ligand; for hIFNg promoter reporter activity: transcription factor +/- ligand, control = 1.00
Experimental: (§1) The use, feasibility, and reproducibility of the functional NHR-promoter screen in a 48-well format have been tested validated. Briefly, there were co-expressed 50 ng of each NHR/NHR homodimer or NHR/RXR heterodimer with 100 ng promoter/luciferase construct and 50 ng of LacZ (as a control for transfection efficiency) in CV-1 cells using Fugene HD (Roche) as a transfection reagent (alternatively or additionally, a CMV-YFP construct can be used as a transfection control). Each of the nuclear hormone receptors that were used in these experiments was cloned into a pcDNA3.1 vector and comprised a C-terminally linked V5H6 tag. Twenty-four hours after transfection, appropriate ligands were added, where applicable, (see Table 5 for various ligands and concentrations and after 48 hrs, samples were assayed for luciferase and LacZ activity. To measure for luciferase activity 15 ul of sample was added to 30 ul of luciferase buffer (20 mM tricine, 1.07 mM MgCarbonate, 2.67 mM MgSulfate, 0.1 mM Naz-EDTA, 5 mM DTT, 5 mM ATP, 0.15 mg/ml CoA, 0.5 mM Luciferin), mixed briefly, and run in a Perkin Elmer Victor 5 luminometer. Thus, the functional NHR-promoter screen was used to observe the transcriptional activity of 29 promoters from various physiological pathways including inflammation, lipid and sugar metabolism, cholesterol transport, xenobiotic metabolism, and circadian rhythm.
(§2) The promoters that facilitate transcription of the indicated gene products that were tested using the protocols described herein are listed in the first row of the table. The nuclear hormone receptors and, where applicable, ligands that were assayed for their transcriptional effects on the promoters are listed in the first column of the table. The data represent the luciferase activity of each sample normalized to both the lacZ activity of that sample and to a control, e.g., no NHR or ligand, as customary in the art. As described previously, these normalizations allow the transcriptional activity of each reporter cell to be compared to other samples.
(§3) Tables 7-40 show the transcriptional effects of the hormone receptors, and, where applicable, ligands (orphan receptors are screened without ligand), on each individual promoter. […] The control data of each table are shown in their last rows.

mCAR promoter = experiment: NHR-promoter luciferase screen, mCAR promoter; assay type: cell-based, mouse; details: for luciferase activity normalized to lacZ activity and to a control, mCAR: mCAR promoter-luciferase, CV-1 cells, NHR +/- ligand, control = 1.00; for Luc. act., normalized to lacZ / Normalized Luc. act., normalized to control: mCAR promoter, HR/ligand component
Experimental: as §1, §2, §3

mUCP2 promoter = experiment: NHR-promoter luciferase screen, mUCP2 promoter; assay type: cell-based, mouse; details: for Luc. act., normalized to lacZ / Normalized Luc. act., normalized to control: mUCP2 promoter reporter, co-transfected HR, with or without its ligand; for Normalized Luc. act., normalized to control: relative to control; for luciferase activity normalized to lacZ activity and to a control, mUCP2: mUCP2 promoter-luciferase, CV-1 cells, NHR +/- ligand, control = 1.00
Experimental: as §1, §2, §3

hPPARg2 promoter = experiment: NHR-promoter luciferase screen, hPPARg2 promoter; assay type: cell-based, human; details: for Luc. act., normalized to lacZ / Normalized Luc. act., normalized to control: PPARG2 promoter, hormone receptor with or without its ligand; for Normalized Luc. act., normalized to control: relative to control; for Results of assays of transcription factor (+/- ligand) with hPPARg2: Table 6d, luciferase activity relative to control (control = 1.00)
Experimental: as §1, §2, §3

mDio2 promoter = experiment: NHR-promoter luciferase screen, mDio2 promoter; assay type: cell-based, mouse; details: for Luc. act., normalized to lacZ / Normalized Luc. act., normalized to control: Dio2, HR component without or with its ligand; for mDio2 promoter reporter activity: transcription factor +/- ligand, control = 1.00
Experimental: as §1, §2, §3

mABCA1 promoter = experiment: NHR-promoter luciferase screen, mABCA1 promoter; assay type: cell-based, mouse; details: for Luc. act., normalized to lacZ / Normalized Luc. act., normalized to control: ABCA1 promoter, hormone receptor with or without its ligand; for Normalized Luc. act., normalized to control: relative to control; for mABCA1 promoter reporter activity: transcription factor +/- ligand, control = 1.00
Experimental: as §1, §2, §3

## AR: Androsterone Receptor (NR3C4), cDNA driver
hIFNg promoter
  Luc. act., normalized to lacZ: 31.4
  Normalized Luc. act., normalized to control: 2.0
  hIFNg promoter reporter activity: 1.97
mCAR promoter
  luciferase activity normalized to lacZ activity and to a control, mCAR: 0.81
  Luc. act., normalized to lacZ: 30.88
  Normalized Luc. act., normalized to control: 0.8
mUCP2 promoter
  Luc. act., normalized to lacZ: 196.6
  Normalized Luc. act., normalized to control: 1.8
  luciferase activity normalized to lacZ activity and to a control, mUCP2: 1.79
hPPARg2 promoter
  Luc. act., normalized to lacZ: 2.7
  Normalized Luc. act., normalized to control: 1.3
  Results of assays of transcription factor (+/- ligand) with hPPARg2: 1.34
mDio2 promoter
  Luc. act., normalized to lacZ: 19.7
  Normalized Luc. act., normalized to control: 1.3
  mDio2 promoter reporter activity: 1.26
mABCA1 promoter
  Luc. act., normalized to lacZ: 8.3
  Normalized Luc. act., normalized to control: 1.5
  mABCA1 promoter reporter activity: 1.48

## ERR1: Estrogen Related Receptor α (NR3B1, ERRa), cDNA driver
hIFNg promoter
  Luc. act., normalized to lacZ: 18.5
  Normalized Luc. act., normalized to control: 1.2
  hIFNg promoter reporter activity: 1.17
mCAR promoter
  luciferase activity normalized to lacZ activity and to a control, mCAR: 1.07
  Luc. act., normalized to lacZ: 40.9
  Normalized Luc. act., normalized to control: 1.1
mUCP2 promoter
  Luc. act., normalized to lacZ: 121.6
  Normalized Luc. act., normalized to control: 1.1
  luciferase activity normalized to lacZ activity and to a control, mUCP2: 1.11
hPPARg2 promoter
  Luc. act., normalized to lacZ: 1.7
  Normalized Luc. act., normalized to control: 0.8
  Results of assays of transcription factor (+/- ligand) with hPPARg2: 0.84
mDio2 promoter
  Luc. act., normalized to lacZ: 34.6
  Normalized Luc. act., normalized to control: 2.2
  mDio2 promoter reporter activity: 2.20
mABCA1 promoter
  Luc. act., normalized to lacZ: 8.2
  Normalized Luc. act., normalized to control: 1.5
  mABCA1 promoter reporter activity: 1.47

## GR: Glucocorticoid Receptor (NR3C1), cDNA driver
hIFNg promoter
  Luc. act., normalized to lacZ: 8.9
  Normalized Luc. act., normalized to control: 0.6
  hIFNg promoter reporter activity: 0.56
mCAR promoter
  luciferase activity normalized to lacZ activity and to a control, mCAR: 0.23
  Luc. act., normalized to lacZ: 8.74
  Normalized Luc. act., normalized to control: 0.2
mUCP2 promoter
  Luc. act., normalized to lacZ: 59.4
  Normalized Luc. act., normalized to control: 0.5
  luciferase activity normalized to lacZ activity and to a control, mUCP2: 0.54
hPPARg2 promoter
  Luc. act., normalized to lacZ: 2.3
  Normalized Luc. act., normalized to control: 1.1
  Results of assays of transcription factor (+/- ligand) with hPPARg2: 1.15
mDio2 promoter
  Luc. act., normalized to lacZ: 13.2
  Normalized Luc. act., normalized to control: 0.8
  mDio2 promoter reporter activity: 0.84
mABCA1 promoter
  Luc. act., normalized to lacZ: 8.5
  Normalized Luc. act., normalized to control: 1.5
  mABCA1 promoter reporter activity: 1.52

## LXRa: Liver X Receptor α (NR1H3), cDNA driver
hIFNg promoter
  Luc. act., normalized to lacZ: 24.59
  Normalized Luc. act., normalized to control: 1.5
  hIFNg promoter reporter activity: 1.55
mCAR promoter
  luciferase activity normalized to lacZ activity and to a control, mCAR: 0.78
  Luc. act., normalized to lacZ: 29.5
  Normalized Luc. act., normalized to control: 0.8
mUCP2 promoter
  Luc. act., normalized to lacZ: 262.7
  Normalized Luc. act., normalized to control: 2.4
  luciferase activity normalized to lacZ activity and to a control, mUCP2: 2.39
hPPARg2 promoter
  Luc. act., normalized to lacZ: 1.3
  Normalized Luc. act., normalized to control: 0.6
  Results of assays of transcription factor (+/- ligand) with hPPARg2: 0.64
mDio2 promoter
  Luc. act., normalized to lacZ: 19.0
  Normalized Luc. act., normalized to control: 1.2
  mDio2 promoter reporter activity: 1.21
mABCA1 promoter
  Luc. act., normalized to lacZ: 93.0
  Normalized Luc. act., normalized to control: 16.6
  mABCA1 promoter reporter activity: 16.56

## NR4a1: NR4a1 (NR4A1; NUR77), nuclear hormone receptor cDNA driver
hIFNg promoter
  Luc. act., normalized to lacZ: 35.6
  Normalized Luc. act., normalized to control: 2.2
  hIFNg promoter reporter activity: 2.24
mCAR promoter
  luciferase activity normalized to lacZ activity and to a control, mCAR: 0.94
  Luc. act., normalized to lacZ: 35.66
  Normalized Luc. act., normalized to control: 0.9
mUCP2 promoter
  Luc. act., normalized to lacZ: 265.6
  Normalized Luc. act., normalized to control: 2.4
  luciferase activity normalized to lacZ activity and to a control, mUCP2: 2.42
hPPARg2 promoter
  Luc. act., normalized to lacZ: 1.6
  Normalized Luc. act., normalized to control: 0.8
  Results of assays of transcription factor (+/- ligand) with hPPARg2: 0.81
mDio2 promoter
  Luc. act., normalized to lacZ: 21.8
  Normalized Luc. act., normalized to control: 1.4
  mDio2 promoter reporter activity: 1.39
mABCA1 promoter
  Luc. act., normalized to lacZ: 11.4
  Normalized Luc. act., normalized to control: 2.0
  mABCA1 promoter reporter activity: 2.04

## PNR: Photoreceptor-specific Nuclear Receptor (NR2E3), cDNA driver
hIFNg promoter
  Luc. act., normalized to lacZ: 11.3
  Normalized Luc. act., normalized to control: 0.7
  hIFNg promoter reporter activity: 0.71
mCAR promoter
  luciferase activity normalized to lacZ activity and to a control, mCAR: 0.55
  Luc. act., normalized to lacZ: 21.0
  Normalized Luc. act., normalized to control: 0.6
mUCP2 promoter
  Luc. act., normalized to lacZ: 104.4
  Normalized Luc. act., normalized to control: 1.0
  luciferase activity normalized to lacZ activity and to a control, mUCP2: 0.95
hPPARg2 promoter
  Luc. act., normalized to lacZ: 1.0
  Normalized Luc. act., normalized to control: 0.5
  Results of assays of transcription factor (+/- ligand) with hPPARg2: 0.51
mDio2 promoter
  Luc. act., normalized to lacZ: 14.0
  Normalized Luc. act., normalized to control: 0.9
  mDio2 promoter reporter activity: 0.89
mABCA1 promoter
  Luc. act., normalized to lacZ: 9.9
  Normalized Luc. act., normalized to control: 1.8
  mABCA1 promoter reporter activity: 1.76

## PPARa: Peroxisome proliferator activated receptor α (NR1C1), cDNA driver
hIFNg promoter
  Luc. act., normalized to lacZ: 11.3
  Normalized Luc. act., normalized to control: 0.7
  hIFNg promoter reporter activity: 0.71
mCAR promoter
  luciferase activity normalized to lacZ activity and to a control, mCAR: 0.88
  Luc. act., normalized to lacZ: 33.6
  Normalized Luc. act., normalized to control: 0.9
mUCP2 promoter
  Luc. act., normalized to lacZ: 167.3
  Normalized Luc. act., normalized to control: 1.5
  luciferase activity normalized to lacZ activity and to a control, mUCP2: 1.52
hPPARg2 promoter
  Luc. act., normalized to lacZ: 2.4
  Normalized Luc. act., normalized to control: 1.2
  Results of assays of transcription factor (+/- ligand) with hPPARg2: 1.20
mDio2 promoter
  Luc. act., normalized to lacZ: 23.0
  Normalized Luc. act., normalized to control: 1.5
  mDio2 promoter reporter activity: 1.46
mABCA1 promoter
  Luc. act., normalized to lacZ: 10.7
  Normalized Luc. act., normalized to control: 1.9
  mABCA1 promoter reporter activity: 1.90
